This passage reports IC50 and Activity results from ChEMBL document CHEMBL4477231, “Design, synthesis and antiproliferative activity studies of novel dithiocarbamate-chalcone derivates” (Bioorg Med Chem Lett, 2016).

pIC50: −log10 of the molar value. Active and inactive are the calls of the source. The rule behind the calls is not given here.

One experiment has as its system ECa-109 cell line. The experiment can be described thus: Cytotoxicity against human EC109 cells assessed as cell growth inhibition after 72 hrs by MTT assay. The format is functional, cell-based. Particulars: ECa-109, 72 h.
In experiment [1] the test system is SK-N-SH. As to the kind of experiment: Cytotoxicity against human SK-N-SH cells assessed as cell growth inhibition after 72 hrs by MTT assay. It is filed as functional, cell-based. In general terms: Tetrazolium assays rely on reduction of a dye to a coloured formazan, in cell work by metabolically active cells.
Another experiment has as its system MGC-803. As to the kind of experiment: Cytotoxicity against human MGC803 cells assessed as cell growth inhibition after 72 hrs by MTT assay. The following applies: MGC-803, 72 h. The format is functional, cell-based.
Experiment [2] deals with SK-N-SH. As to the kind of experiment: Induction of apoptosis in human SK-N-SH cells at 5 uM after 24 hrs by Annexin V-FITC/propidium iodide staining based flow cytometry relative to control. The format is functional.
Experiment [3] deals with SK-N-SH. The experiment can be described thus: Cell cycle arrest in human SK-N-SH cells assessed as accumulation at G2/M phase at 5 uM after 48 hrs by propidium iodide staining based flow cytometry (reference value: 18.35 %). The format is functional.
Experiment [4] has as its system SK-N-SH. The experiment can be described thus: Cell cycle arrest in human SK-N-SH cells assessed as accumulation at S phase at 5 uM after 48 hrs by propidium iodide staining based flow cytometry (reference value: 27.41 %). It is filed as functional.
Experiment [5] concerns SK-N-SH. The experiment can be described thus: Induction of apoptosis in human SK-N-SH cells at 5 uM by Annexin V-FITC/propidium iodide staining based flow cytometry. The following applies: TDE = time-dependent effect. The format is functional, cell-based. Background: Flow cytometry measures light scatter and fluorescence of single cells or particles in a stream.
Experiment [6] relates to SK-N-SH. The experiment can be described thus: Cell cycle arrest in human SK-N-SH cells assessed as accumulation at G2/M phase at 2.5 uM after 48 hrs by propidium iodide staining based flow cytometry (reference value: 18.35 %). It is filed as functional.
For experiment [7], the system named is SK-N-SH. The experiment can be described thus: Cell cycle arrest in human SK-N-SH cells assessed as accumulation at S phase at 5 uM after 24 hrs by propidium iodide staining based flow cytometry (reference value: 30.91 %). The format is functional.
Experiment [8] has as its system SK-N-SH. The experiment can be described thus: Cell cycle arrest in human SK-N-SH cells assessed as accumulation at G0/G1 phase at 5 uM after 48 hrs by propidium iodide staining based flow cytometry (reference value: 54.35 %). The format is functional.
Experiment [9] has as its system SK-N-SH. The experiment can be described thus: Induction of apoptosis in human SK-N-SH cells assessed as reduction in procaspase-3 level at 2.5 to 5 uM after 48 hrs. The format is functional, cell-based.
The test system of experiment [10] is SK-N-SH. The experiment can be described thus: Cell cycle arrest in human SK-N-SH cells assessed as accumulation at G2/M phase at 2.5 uM after 24 hrs by propidium iodide staining based flow cytometry (reference value: 17 %). It is filed as functional.
Experiment [11] has as its system SK-N-SH. The experiment can be described thus: Cell cycle arrest in human SK-N-SH cells assessed as accumulation at S phase at 2.5 uM after 24 hrs by propidium iodide staining based flow cytometry (reference value: 30.91 %). It is filed as functional.
Experiment [12] relates to SK-N-SH. As to the kind of experiment: Cell cycle arrest in human SK-N-SH cells assessed as accumulation at G0/G1 phase at 2.5 uM after 48 hrs by propidium iodide staining based flow cytometry (reference value: 54.35 %). The format is functional.
The test system of experiment [13] is SK-N-SH. The experiment can be described thus: Cell cycle arrest in human SK-N-SH cells assessed as accumulation at G0/G1 phase at 5 uM after 24 hrs by propidium iodide staining based flow cytometry (reference value: 50.26 %). It is filed as functional.
In experiment [14] the test system is SK-N-SH. As to the kind of experiment: Induction of apoptosis in human SK-N-SH cells assessed as chromatin shrinkage at 5 uM after 24 to 48 hrs by Hoechst 33258 staining based fluorescence microscopy. It is filed as functional, cell-based.
The test system of the next experiment is GES1. The experiment can be described thus: Cytotoxicity against human GES-1 cells assessed as reduction in cell viability after 72 hrs by MTT assay. It is filed as cell-based. Particulars: GES1, 72 h.
For experiment [15], the system named is SK-N-SH. As to the kind of experiment: Cell cycle arrest in human SK-N-SH cells assessed as accumulation at G2/M phase at 5 uM after 24 hrs by propidium iodide staining based flow cytometry (reference value: 17 %). The format is functional.
Experiment [16] concerns SK-N-SH. As to the kind of experiment: Cell cycle arrest in human SK-N-SH cells assessed as accumulation at S phase at 2.5 uM after 48 hrs by propidium iodide staining based flow cytometry (reference value: 27.41 %). The format is functional.
The subject of experiment [17] is SK-N-SH. The experiment can be described thus: Induction of apoptosis in human SK-N-SH cells assessed as round cells at 5 uM after 24 to 48 hrs by Hoechst 33258 staining based fluorescence microscopy. The format is functional, cell-based.
Experiment [18] concerns SK-N-SH. As to the kind of experiment: Cell cycle arrest in human SK-N-SH cells assessed as accumulation at G0/G1 phase at 2.5 uM after 24 hrs by propidium iodide staining based flow cytometry (reference value: 50.26 %). It is filed as functional.
Experiment [19] concerns SK-N-SH. As to the kind of experiment: Induction of apoptosis in human SK-N-SH cells assessed as formation of apoptotic bodies at 5 uM after 24 to 48 hrs by Hoechst 33258 staining based fluorescence microscopy. It is filed as functional, cell-based.
Experiment [20] relates to SK-N-SH. The experiment can be described thus: Induction of apoptosis in human SK-N-SH cells at 5 uM after 48 hrs by Annexin V-FITC/propidium iodide staining based flow cytometry relative to control. The format is functional.
The test system of experiment [21] is SK-N-SH. The experiment can be described thus: Induction of apoptosis in human SK-N-SH cells assessed as increase in p53 expression at 2.5 to 5 uM after 48 hrs. It is filed as functional, cell-based.

As a reminder, the pIC50 is −log10 of the IC50, conventionally taken in molar units. For `O=C(/C=C/c1ccc(Cl)cc1)c1ccc(OCCCSC(=S)N2CCCCC2)cc1`, the pIC50 with ECa-109 cell line is 4.37; in the experiment with SK-N-SH [1] it was 4.49; in the experiment with MGC-803 it was 4.25.
With `CN1CCN(C(=S)SCCCOc2ccc(C(=O)/C=C/c3ccc(Cl)cc3)cc2)CC1`, the pIC50 with ECa-109 cell line was 4.47; in the experiment with SK-N-SH [1], 4.50; in the experiment with MGC-803, 4.53.
With `O=C(/C=C/c1ccc(Cl)cc1)c1ccc(OCCCSC(=S)N2CCCC2)cc1`, the pIC50 in the experiment on ECa-109 cell line is 4.73; with SK-N-SH [1], 4.72; in the experiment with MGC-803, 4.46.
For the compound `CN1CCN(C(=S)SCCCOc2ccc(C(=O)/C=C/c3cc(Cl)cc(Cl)c3)cc2)CC1`, the negative-log IC50 (pIC50) is 4.91 in the experiment with ECa-109 cell line, 4.61 with SK-N-SH [1] and 4.71 in the experiment with MGC-803.
Regarding `O=c1[nH]cc(F)c(=O)[nH]1` [FLUOROURACIL], the figures for the negative logarithm of the IC50 (pIC50) with SK-N-SH [1] and in the experiment with MGC-803 were 5.01 and 5.14, respectively.
For `COc1cc(/C=C/C(=O)c2ccc(OCCSC(=S)N3CCCCC3)cc2)cc(OC)c1OC`, the pIC50 with ECa-109 cell line is 4.41; in the experiment with SK-N-SH [1] it was 4.32; in the experiment on MGC-803 it was 4.38.
For the compound `O=C(/C=C/c1ccc(Cl)cc1)c1ccc(OCCSC(=S)N2CCOCC2)cc1`, the results for the pIC50 with ECa-109 cell line, in the experiment with SK-N-SH [1] and with MGC-803 were 4.81, 4.93 and 4.94, respectively.
For the compound `COc1cc(/C=C/C(=O)c2ccc(OCCSC(=S)N3CCCC3)cc2)cc(OC)c1OC`, the pIC50 in the experiment with ECa-109 cell line was 4.97; with SK-N-SH [1], 4.92; in the experiment with MGC-803, 4.50.
`COc1cc(/C=C/C(=O)c2ccc(OCCCSC(=S)N3CCN(C)CC3)cc2)cc(OC)c1OC`: the Activity in the experiment with SK-N-SH [2] is 20.6%; in the experiment with SK-N-SH [3], 10.54%; in the experiment with SK-N-SH [4], 14.22%; with SK-N-SH [5], “Tde”; with SK-N-SH [6], 13.81%; in the experiment with SK-N-SH [7], 25.26%. In addition, the Activity with SK-N-SH [8] stood at 74.85%; in the experiment on SK-N-SH [10] it was 18.55%; in the experiment on SK-N-SH [11], 31.19%; in the experiment on SK-N-SH [12], 59.64%; in the experiment with SK-N-SH [13] it was 68.19%; in the experiment with SK-N-SH [15], 6.11%. In addition, the Activity turned out to be 26.02% in the experiment on SK-N-SH [16], 50.03% in the experiment with SK-N-SH [18] and 36.8% in the experiment with SK-N-SH [20]. The negative-log IC50 (pIC50) with ECa-109 cell line is 5.13; with SK-N-SH [1], 5.69; with MGC-803, 5.13; in the experiment with GES1 it was under 4.19. Further, the result in the experiment on SK-N-SH [9], in the experiment with SK-N-SH [14], in the experiment with SK-N-SH [17], in the experiment on SK-N-SH [19] and with SK-N-SH [21] was Active.
Regarding `O=C(/C=C/c1cccs1)c1ccc(OCCCSC(=S)N2CCCCC2)cc1`, the results for the pIC50 in the experiment on ECa-109 cell line, with SK-N-SH [1] and with MGC-803 were 4.44, 4.42 and 4.38, respectively.
On to `CN1CCN(C(=S)SCCCOc2ccc(C(=O)/C=C/c3cc(F)cc(F)c3)cc2)CC1`, for which the pIC50 with ECa-109 cell line is 4.84; in the experiment with SK-N-SH [1], 4.88; in the experiment with MGC-803, 4.79.
In the case of `COc1cc(/C=C/C(=O)c2ccc(OCCCSC(=S)N3CCCC3)cc2)cc(OC)c1OC`, the pIC50 in the experiment on ECa-109 cell line was 4.95; in the experiment on SK-N-SH [1], 4.89; in the experiment on MGC-803, 4.84.
Regarding `O=C(/C=C/c1cc(F)cc(F)c1)c1ccc(OCCCSC(=S)N2CCCC2)cc1`, the pIC50 in the experiment on ECa-109 cell line was 4.54; in the experiment with SK-N-SH [1], 4.44; in the experiment on MGC-803, 4.55.
In the case of `COc1cc(/C=C/C(=O)c2ccc(OCCSC(=S)N3CCN(C)CC3)cc2)cc(OC)c1OC`, the pIC50 was 5.00 in the experiment on ECa-109 cell line, 5.61 in the experiment with SK-N-SH [1], 5.08 in the experiment with MGC-803 and under 4.19 in the experiment with GES1.
Take `O=C(/C=C/c1ccc(Cl)cc1)c1ccc(OCCSC(=S)N2CCCC2)cc1`: the pIC50 with ECa-109 cell line is 4.56; with SK-N-SH [1], 4.74; with MGC-803 it was 4.32.
Take `O=C(/C=C/c1cccnc1)c1ccc(OCCCSC(=S)N2CCCC2)cc1`: the negative logarithm of the IC50 (pIC50) in the experiment on ECa-109 cell line was 4.53; with SK-N-SH [1], 4.61; in the experiment with MGC-803, 4.71.
The matching figures for `COc1ccc(/C=C/C(=O)c2ccc(OCCCSC(=S)N3CCN(C)CC3)cc2)cc1`: under 4.00, 4.53 and 4.71.
On to `O=C(/C=C/c1cccs1)c1ccc(OCCSC(=S)N2CCCC2)cc1`, for which the pIC50 in the experiment on ECa-109 cell line was 4.74; with SK-N-SH [1] it was 4.72; with MGC-803, 4.49.
Turning to `O=C(/C=C/c1ccc(Cl)cc1)c1ccc(OCCSC(=S)N2CCCCC2)cc1`, the pIC50 with ECa-109 cell line was 4.58; in the experiment with SK-N-SH [1] it was 4.56; in the experiment with MGC-803, 4.89.
